{"source": "patent US6039931A", "about": "“Derivatized DTPA complexes, pharmaceutical agents containing these compounds, their use, and processes for their production” (Schering Aktiengesellschaft, priority 1989, dated 2000)", "key": {"[1]": {"system": "female rats of the strain Lew/Mol", "experiment": "in vivo MRI imaging (T1-weighted spin echo, 2 tesla) after i.v. administration, 3 compounds", "set-up": "species or system rat (Lew/Mol)", "details": "0.1 mmol Gd/kg i.v.", "source_text": "The test animals were female rats of the strain Lew/Mol weighing 160-180 g. Prior to imaging, the animals were anesthetized (\"Rompun\"+\"Ketavet\") and provided with a catheter in the caudal vein to administer the contrast medium. Imaging took place in an MRI experimental device by General Electric (field strength 2 tesla). First of all, the images (7, 9, 11) were made without contrast medium with a T1 -weighted spin echo sequence (TR=400 msec, TE=20 msec, axial section plane, layer thickness 3 mm). The liver appears in each case with the normal signal intensity; the stomach is […] in tendency than the liver. […] This is due to feed residues, the feed containing manganese in relatively high concentrations (at the time of the test, the animals had been fasting for 6 hours) . Animal 3 had been implanted with an osteogenic sarcoma three weeks previously; this sarcoma was of equal contrast in the blank image and could not be defined. The administration of contrast medium took place via the venous catheter with a dose of 0.1 mmol Gd/kg (concentration of the solutions 0.05 mmol Gd/ml in 0.9% NaCl) for all 3 compounds."}, "[2]": {"system": "male hairless rat (Lew/Mol), Brown Pearce tumor", "experiment": "in vivo NMR imaging (spin echo, 2 tesla) after i.v. administration, rat with Brown Pearce tumor in the thigh", "details": "0.06 mmol/kg i.v.", "source_text": "Spin echo scans were made with the NMR tomograph (CSI 2 T) at 2 tesla (TR time of 400 ms and TE time of 20 ms)."}, "[3]": {"experiment": "T1 relaxation (relaxivity) in water and in plasma", "assay_type": "physicochemical"}, "[4]": {"system": "female rats of the strain Lew/Mol", "details": "at this point in time after administration; commercial contrast medium; cited from earlier work"}}}
{"smiles": "CCOc1ccc(CC(CN(CCN(CC(=O)[O-])CC(=O)[O-])CC(=O)[O-])N(CC(=O)[O-])CC(=O)[O-])cc1.[Gd+3].[Na+].[Na+]", "note": "(stereo not drawn) [Example 8(c), Disodium Salt of the Gadolinium Complex of 3,6,9-Triaza-3,6,9-tris(carboxymethyl)-4-(4-ethoxybenzyl)undecanedioic Acid]", "values": [{"measurement": "enhancement of the stomach, ranking among the 3 compounds", "setting": "[1]", "result": "least"}, {"measurement": "enhancement of the liver", "setting": "[1]; after 90 minutes", "result": "A marked enhancement of the liver"}]}
{"smiles": "COc1ccc(CC(CN(CCN(CC(=O)[O-])CC(=O)[O-])CC(=O)[O-])N(CC(=O)[O-])CC(=O)[O-])cc1.[Gd+3].[Na+].[Na+]", "note": "(stereo not drawn) [Example 1(c) disodium salt, Gadolinium Complex of 3,6,9-Triaza-3,6,9-tris(carboxymethyl)-4-(4-methoxybenzyl)undecanedioic Acid]", "values": [{"measurement": "enhancement in the urinary bladder", "setting": "[2]; 1 minute after administration", "result": "the first enhancement is already apparent in the urinary bladder"}, {"measurement": "increase in contrast in the stomach", "setting": "[2]; 45 minutes after injection", "result": "A strong increase in contrast is visible in the stomach"}, {"measurement": "visualization of the tumor, of the urinary bladder, and of the stomach", "setting": "[2]; 60 minutes after injection", "result": "A good visualization of the tumor (at the level of the reference tube) of the urinary bladder, and of the stomach"}, {"measurement": "contrasting of the renal pelvis", "setting": "[2]; 60 minutes, further improved 65 minutes after injection in a different layer", "result": "Contrasting of the renal pelvis is also striking"}, {"measurement": "contrast enhancement in an axial scan in the zone of the liver", "setting": "[2]; 180 minutes after injection", "result": "the contrast enhancement is likewise clearly recognizable"}]}
{"smiles": "CCCCOc1ccc(CC(CN(CCN(CC(=O)[O-])CC(=O)[O-])CC(=O)[O-])N(CC(=O)[O-])CC(=O)[O-])cc1.[Gd+3].[Na+].[Na+]", "note": "(stereo not drawn) [Example 9(c), Disodium Salt of the Gadolinium Complex of 3,6,9-Triaza-3,6,9-tris(carboxymethyl)-4-(4-butoxybenzyl)undecanedioic Acid]", "values": [{"measurement": "enhancement of the liver", "setting": "[1]; after 60 minutes", "result": "A marked enhancement of the liver"}, {"measurement": "T1 relaxation", "setting": "[3]; in plasma", "result": "14.20 ± 0.98", "unit": "mmol⁻¹ s⁻¹"}, {"measurement": "T1 relaxation", "setting": "[3]; in water", "result": "5.80 ± 0.26", "unit": "mmol⁻¹ s⁻¹"}]}
{"smiles": "CNC[C@H](O)[C@@H](O)[C@H](O)[C@H](O)CO.CNC[C@H](O)[C@@H](O)[C@H](O)[C@H](O)CO.O=C([O-])CN(CCN(CC(=O)[O-])CC(=O)O)CCN(CC(=O)[O-])CC(=O)O.[Gd+3]", "note": "[Magnevist, dimeglumine salt of Gd DTPA [gadolinium(III)complex of diethylenetriaminepentaacetic acid]]", "values": [{"measurement": "enhancement of the liver (uptake by the hepatocytes), comparison", "setting": "[4]", "result": "cannot be observed at this point in time after administration"}]}
{"smiles": "O=C([O-])CN(CCN(CC(=O)[O-])CC(Cc1ccc(OCc2ccccc2)cc1)N(CC(=O)[O-])CC(=O)[O-])CC(=O)[O-].[Gd+3].[Na+].[Na+]", "note": "(stereo not drawn) [Example 10(c), Disodium Salt of the Gadolinium Complex of 3,6,9-Triaza-3,6,9-tris(carboxymethyl)-4-(4-benzyloxybenzyl)undecanedioic Acid]", "values": [{"measurement": "enhancement of the stomach, ranking among the 3 compounds", "setting": "[1]", "result": "most strongly"}, {"measurement": "enhancement of the liver", "setting": "[1]; after 60 minutes", "result": "A marked enhancement of the liver"}, {"measurement": "absorption of the contrast medium by the tumor (implanted osteogenic sarcoma)", "setting": "[1]; animal 3, 60 minutes", "result": "has not absorbed the contrast medium at all, or only to a lesser proportion"}, {"measurement": "visibility of the tumor (implanted osteogenic sarcoma)", "setting": "[1]; animal 3, 60 minutes", "result": "the tumor is now additionally clearly visible"}]}
